Earlier results as cited in patent publication US20030054020A1, “Method and composition for reducing sebum secretion in mammals” (priority 2001, published 2003).

Tested on: human sebaceous glands

CC1=C(/C=C/C(C)=C/C=C/C(C)=C\C(=O)O)C(C)(C)CCC1 [13-cis-retinoic acid]
Reduction of the size of human sebaceous glands: up to 90%
